Assay results published in patent publication US20230312524A1, “ALPHA1A-ADRENERGIC RECEPTOR AGONISTS AND METHODS OF USE” (CuraSen Therapeutics, Inc., priority 2020, published 2023).
Where two headings read alike, the source gives them in different places.

Molecular target: T1, α1A-ARS (Homo sapiens, UniProt P35348)
T1 sequence (P35348 1-466): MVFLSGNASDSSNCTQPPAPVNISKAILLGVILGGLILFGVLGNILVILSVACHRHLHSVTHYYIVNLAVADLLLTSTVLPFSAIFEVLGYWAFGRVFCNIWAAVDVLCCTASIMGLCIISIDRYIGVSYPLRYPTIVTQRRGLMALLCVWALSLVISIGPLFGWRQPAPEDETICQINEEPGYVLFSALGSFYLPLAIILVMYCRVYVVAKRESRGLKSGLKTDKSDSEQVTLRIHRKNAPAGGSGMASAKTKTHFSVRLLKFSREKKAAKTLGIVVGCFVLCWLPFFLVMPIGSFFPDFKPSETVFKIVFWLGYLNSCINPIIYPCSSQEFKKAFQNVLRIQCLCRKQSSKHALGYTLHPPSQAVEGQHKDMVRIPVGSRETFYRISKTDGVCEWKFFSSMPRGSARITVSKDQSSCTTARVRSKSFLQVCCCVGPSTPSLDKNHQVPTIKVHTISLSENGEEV
Assay: Calcium flux assay (Calcium 6 dye) in cells expressing an α1-AR
Assay type: cell-based
Details: for Emax: read-out: Average Emax
From the text: Calcium flux experimental design: alpha-1 adrenergic receptors (α1-ARs) couple to Gq proteins, which results in downstream activation of phospholipase C and release of calcium from intracellular stores. Intracellular calcium increase upon α1-AR activation can be detected by Calcium 6 dye.
Cell preparation: cells expressing an α1-AR were washed in warmed phosphate-buffered saline to remove medium and harvested using versene (Caisson Labs, catalog #EDL01).
Media was removed from cells by tapping plates upside-down on absorbent wipes, followed by 15 second upside-down 50×g centrifugation, again on absorbent wipes. 12 μL cell dye solution was added to cells using a reagent dispenser (Integra viaFILL) and cells were incubated for 90 minutes at 37° C., 5% CO2.
Compound preparation: candidate alpha-adrenergic compounds, dissolved to 10 mM in DMSO, were diluted in_assay buffer (HBSS/H-EPES containing 2 mM CaCl2 and 2 mM probenecid sodium salt). […] On all assay plates, vehicle (DMSO) and positive control (10 μM epinephrine) conditions were included on the plate, as well as a dose-response curve of epinephrine. […] 384 well compound plates were centrifuged briefly at 250×g, sealed (Axygen PCR-SP) and incubated at 37° C. until the 90 minute cell dye incubation was complete.
Calcium 6 stained cells and 384 well compound plates were loaded onto the Flexstation and incubated on the machine for 5 minutes before initiating the assay.
For each assay well, baseline Calcium 6 fluorescence was detected for 18 seconds prior to 12 μL compound addition at 12 μL per second. Changes in Calcium 6 fluorescence were detected for a further 22 seconds, for a total read time of 40 seconds. All detection was performed with medium gain sensitivity, bottom read, with 6 flashes per read.
Data analysis: for calcium flux, analysis of maximum change from baseline over the 40-second read time was determined using Softmax Pro and data was exported as raw text files. Potency estimates (EC50) were derived from dose response curves (maximum change from baseline versus the log concentration of test compound) fit by four-parameter nonlinear regression using Graphpad Prism. Efficacy was determined by comparing the magnitude of the test compound signal window (fitted curve max−min) with the signal window of the full agonist control, epinephrine. […] All experiments were repeated a minimum of three times, with the average (mean) potency and maximum effect relative to the within-plate full agonist dose-response comparator reported.

[1] = calcium flux, α1A-AR, maximum effect relative to full agonist epinephrine
[2] = calcium flux, α1A-AR, mean of at least three experiments, read-out: Average PEC50

Emax [1] | Structure (SMILES) | EC50 [2] | Emax | EC50
> 61% | Clc1cccc(CC2=NCCN2)c1-n1cccc1 [Compound 109] | 10 to 977 nM | – | –
– | FC(F)(F)Oc1ccc(CC2=NCCN2)c(Cl)c1 [Compound 135] | 10 to 977 nM | 21 to 60% | –
– | Cc1coc2c(Cl)cc(CC3=NCCN3)c(C)c12 [Compound 107] | < 9.77 nM | 21 to 60% | –
– | Cc1cc(Cl)cc(Cl)c1CC1=NCCN1 [Compound 125] | 10 to 977 nM | > 61% | –
– | FC(F)Oc1ccc(CC2=NCCN2)c(Cl)c1 [Compound 136] | 10 to 977 nM | 21 to 60% | –
> 61% | CCc1cc(S(C)(=O)=O)ccc1CC1=NCCN1 [Compound 113] | 10 to 977 nM | – | –
– | Cc1c(CC2=NCCN2)cc(Cl)c2occc12 [Compound 56] | 10 to 977 nM | 21 to 60% | –
– | Cc1cc(CC2=NCCN2)cc(OC(F)F)c1 [Compound 148] | 10 to 977 nM | > 61% | –
– | FC(F)Oc1ccc(Cl)c(CC2=NCCN2)c1 [Compound 161] | 10 to 977 nM | > 61% | –
– | Cc1cccc(Cl)c1CC1=NCCN1 [Compound 87] | – | 21 to 60% | 10 to 977 nM
– | Cc1c(CC2=NCCN2)cccc1C(F)(F)F [Compound 126] | 10 to 977 nM | 21 to 60% | –
– | FC(F)(F)Oc1cccc(CC2=NCCN2)c1Cl [Compound 166] | 10 to 977 nM | 21 to 60% | –
> 61% | FC(F)(F)c1ccc(CC2=NCCN2)c(-n2cccn2)c1 [Compound 93] | 10 to 977 nM | – | –
< 20% | Cn1nccc1-c1ccc(CC2=NCCN2)cc1Cl [Compound 1] | > 1000 nM | – | –
> 61% | Clc1ccc(CC2=NCCN2)c(-c2ccon2)c1 [Compound 104] | 10 to 977 nM | – | –
> 61% | Cc1cccn1-c1cc(Cl)ccc1CC1=NCCN1 [Compound 116] | 10 to 977 nM | – | –
– | Cc1c(CC2=NCCN2)cc(Cl)c2c1ccn2C [Compound 101] | < 9.77 nM | > 61% | –
21 to 60% | Cc1c(CC2=NCCN2)cccc1-c1ccco1 [Compound 29] | 10 to 977 nM | – | –
< 20% | C[C@@H](O)c1cc(Cl)ccc1CC1=NCCN1 [Compound 146] | > 1000 nM | – | –
21 to 60% | c1ccc(-c2ncco2)c(CC2=NCCN2)c1 [Compound 158] | 10 to 977 nM | – | –
21 to 60% | CCc1c(CC2=NCCN2)ccc(S(=O)(=O)C(F)(F)F)c1Cl [Compound 150] | > 1000 nM | – | –
– | CCc1cc(F)ccc1CC1=NCCN1 [Compound 71] | 10 to 977 nM | 21 to 60% | –
21 to 60% | Cc1c(CC2=NCCN2)cccc1-c1cn[nH]c1 [Compound 6] | 10 to 977 nM | – | –

Emax [1] | Structure (SMILES) | EC50 [2] | Emax | EC50
21 to 60% | Clc1ccc(CC2=NCCN2)cc1-c1ncco1 [Compound 10] | 10 to 977 nM | – | –
21 to 60% | Cc1c(CC2=NCCN2)ccc(S(=O)(=O)C(F)F)c1Cl [Compound 149] | > 1000 nM | – | –
– | FC(F)(F)c1ccc(CC2=NCCN2)c(C2CC2)c1 [Compound 77] | 10 to 977 nM | > 61% | –
– | Cc1c(CC2=NCCN2)cc(Cl)c2[nH]ncc12 [Compound 108] | 10 to 977 nM | > 61% | –
– | c1cc(CC2=NCCN2)c2[nH]ccc2c1 [Compound 50] | 10 to 977 nM | 21 to 60% | –
– | FC(F)(F)Oc1ccc(Cl)c(CC2=NCCN2)c1 [Compound 167] | 10 to 977 nM | > 61% | –
< 20% | Cc1c(CC2=NCCN2)ccc(Cl)c1-c1nccs1 [Compound 36] | > 1000 nM | – | –
21 to 60% | Cc1cc(-c2cc(Cl)ccc2CC2=NCCN2)sn1 [Compound 37] | 10 to 977 nM | – | –
21 to 60% | Cc1csc(-c2cc(Cl)ccc2CC2=NCCN2)n1 [Compound 24] | 10 to 977 nM | – | –
> 61% | C[C@H](O)c1ccc(CC2=NCCN2)c(Cl)c1 [Compound 163] | 10 to 977 nM | – | –
– | FC(F)(F)Cc1cc(Cl)ccc1CC1=NCCN1 [Compound 90] | > 1000 nM | 21 to 60% | –
– | COc1cc(Cl)ccc1CC1=NCCN1 [Compound 40] | 10 to 977 nM | 21 to 60% | –
21 to 60% | Cc1cccn1-c1c(Cl)cccc1CC1=NCCN1 [Compound 115] | > 1000 nM | – | –
– | N#Cc1ccc(CC2=NCCN2)c(C(F)(F)F)c1 [Compound 83] | > 1000 nM | 21 to 60% | –
21 to 60% | c1cc2c(cc1CC1=NCCN1)NCC21CC1 [Compound 46] | 10 to 977 nM | – | –
– | FC(F)c1cc(Cl)ccc1CC1=NCCN1 [Compound 82] | 10 to 977 nM | 21 to 60% | –
– | Cc1c(CC2=NCCN2)cc(Cl)c2c1cnn2C [Compound 105] | 10 to 977 nM | 21 to 60% | –
– | Clc1ccccc1CC1=NCCN1 [Compound 153] | 10 to 977 nM | < 20% | –
– | c1cc(CC2=NCCN2)c2occc2c1 [Compound 48] | 10 to 977 nM | > 61% | –
< 20% | FC(F)(F)c1ccc(CC2=NCCN2)c(N2CCOCC2)c1 [Compound 68] | > 1000 nM | – | –
– | FC(F)(F)c1cc(Cl)ccc1CC1=NCCN1 [Compound 39] | 10 to 977 nM | > 61% | –
– | Fc1ccc(CC2=NCCN2)c(C2CC2)c1 [Compound 70] | 10 to 977 nM | 21 to 60% | –
– | Cc1ccccc1CC1=NCCN1 [Compound 155] | 10 to 977 nM | 21 to 60% | –

Emax [1] | Structure (SMILES) | EC50 [2] | Emax | EC50
21 to 60% | Clc1ccc(CC2=NCCN2)c(-c2cnccn2)c1 [Compound 27] | 10 to 977 nM | – | –
– | COc1ccccc1CC1=NCCN1 [Compound 156] | 10 to 977 nM | 21 to 60% | –
21 to 60% | Cc1coc(-c2cc(Cl)ccc2CC2=NCCN2)n1 [Compound 94] | 10 to 977 nM | – | –
– | c1cc(CC2=NCCN2)c2[nH]ncc2c1 [Compound 51] | > 1000 nM | 21 to 60% | –
– | FC(F)(F)Oc1cc(Cl)ccc1CC1=NCCN1 [Compound 85] | 10 to 977 nM | 21 to 60% | –
> 61% | Clc1ccc(CC2=NCCN2)c(-n2cccc2)c1 [Compound 91] | 10 to 977 nM | – | –
21 to 60% | Cc1c(CC2=NCCN2)cccc1-c1ncco1 [Compound 5] | 10 to 977 nM | – | –
– | Cc1ccc(OC(F)(F)F)cc1CC1=NCCN1 [Compound 165] | – | > 61% | 10 to 977 nM
– | CC(C)C(F)(F)c1cc(Cl)ccc1CC1=NCCN1 [Compound 117] | 10 to 977 nM | 21 to 60% | –
– | Clc1ccc(CC2=NCCN2)c(C2CC2)c1 [Compound 65] | 10 to 977 nM | > 61% | –
> 61% | Cc1ccoc1-c1cc(Cl)ccc1CC1=NCCN1 [Compound 35] | < 9.77 nM | – | –
– | Cc1ccc(Cl)cc1CC1=NCCN1 [Compound 86] | 10 to 977 nM | 21 to 60% | –
– | CCC(F)(F)c1c(Cl)cccc1CC1=NCCN1 [Compound 137] | 10 to 977 nM | 21 to 60% | –
– | Cc1cc2c(C)c(CC3=NCCN3)cc(Cl)c2o1 [Compound 98] | 10 to 977 nM | 21 to 60% | –
> 61% | Clc1ccc(CC2=NCCN2)c(-c2ccccn2)c1 [Compound 18] | 10 to 977 nM | – | –
– | FC(F)(F)c1cccc(Cl)c1CC1=NCCN1 [Compound 134] | 10 to 977 nM | > 61% | –
21 to 60% | Cc1c(CC2=NCCN2)cccc1-c1ccnn1C [Compound 7] | 10 to 977 nM | – | –
21 to 60% | Cc1c(CC2=NCCN2)ccc(S(=O)(=O)C(F)(F)F)c1Cl [Compound 159] | > 1000 nM | – | –
– | FC(F)(F)c1ccc(Cl)c(CC2=NCCN2)c1 [Compound 132] | 10 to 977 nM | > 61% | –
– | COc1ccc(CC2=NCCN2)c(C(F)(F)F)c1 [Compound 81] | 10 to 977 nM | > 61% | –
– | CC(C)Cc1cc(Cl)ccc1CC1=NCCN1 [Compound 88] | 10 to 977 nM | > 61% | –
– | Cc1c(CC2=NCCN2)cc(C)c2occc12 [Compound 44] | 10 to 977 nM | 21 to 60% | –
– | FC(F)Oc1cccc(CC2=NCCN2)c1Cl [Compound 160] | 10 to 977 nM | > 61% | –
